Data taken from patent US6716834B2, “Thiochromane derivatives and their use as thrombin inhibitors” (AstraZeneca AB, priority 2000, dated 2004).

Legend:
[1] = target: T1, Human thrombin (Homo sapiens, UniProt P00734); assay: Test A: Determination of Thrombin Clotting Time (TT); assay type: biochemical; conditions: concentration of inhibitor that doubles the thrombin clotting time in plasma
T1 construct: purchased Sigma Chem. Co or Hematologic Technologies T 6769
Protocol: Determination of Thrombin Clotting Time (TT)
The inhibitor solution (25 ? L) is incubated with plasma (25 ? L) for three minutes. Human thrombin (T 6769; Sigma Chem. Co or Hematologic Technologies) in buffer solution, pH 7.4 (25 ? L, 4.0 NIH units/mL), is then added and the clotting time measured in an automatic device (KC 10; Amelung).
The thrombin clotting time (TT) is expressed as absolute values (seconds) as well as the ratio of TT without inhibitor (TT0) to TT with inhibitor (TTi). The latter ratios (range 1-0) are plotted against the concentration of inhibitor (log transformed) and fitted to sigmoidal dose-response curves according to the equation
where: a=maximum range, i.e. 1; s=slope of the dose-response curve; and IC50=the concentration of inhibitor that doubles the clotting time. The calculations are processed on a PC using the software program GraFit Version 3, setting equation equal to: Start at 0, define end=1 (Erithacus Software, Robin Leatherbarrow, Imperial College of Science, London, UK).

[2] = Test G: Metabolic Activation of Prodrug Compounds in vitro; assay type: in vitro ADME, human or rat
Protocol: Metabolic Activation of Prodrug Compounds in vitro
Prodrug compounds of formula IA are incubated at 37° C. with liver microsomes or 10 000 g (referring to the centrifuge speed) supernatant fractions (i.e. s9 fraction) prepared from human or rat liver homogenate. The total protein concentration in the incubations are 1 or 3 mg/mL dissolved in 0.05 mol/L TRIS buffer (pH 7.4), and with the cofactors NADH (2.5 mmol/L) and NADPH (0. 8 mmol/L) present. The total volume of the incubate is 1.2 mL. The initial prodrug concentrations are 5 or 10 ? mol/L. Samples are collected from the incubate at regular is intervals more than 60 minutes after the start of the incubations. Samples (25 ? L) from the incubate are mixed with an equal volume of human or rat plasma and an appropriate amount of thrombin, and the clotting time (i.e. thrombin time) is measured on a coagulometer (KC 10; Amelung). The amount of “active” thrombin inhibitor formed is estimated by the use of standard curves relating the thrombin time in pooled citrated human or rat plasma to known concentrations of the corresponding “active thrombin inhibitor”.
The amount of “active” thrombin inhibitor is alternatively, or in addition to the above-mentioned method, estimated by the use of LC-MS.

[3] = Test E: Determination of Thrombin Time ex vivo (bioavailability of active inhibitor after prodrug administration); assay type: in vivo; conditions: rat
Text: Determination of Thrombin Time ex vivo
The inhibition of thrombin after oral or parenteral administration of the compounds of formula I, dissolved in ethanol:Solutol3:water (5:5:90), is examined in conscious rats which, one or two days prior to the experiment, are equipped with a catheter for blood sampling from the carotid artery. On the experimental day blood samples are withdrawn at fixed times after the administration of the compound into plastic tubes containing 1 part sodium citrate solution (0.13 mol per L) and 9 parts of blood. The tubes are centrifuged to obtain platelet poor plasma. The plasma is used for determination of thrombin time or ecarin clotting time (ECT) as described below.
The citrated rat plasma, 100 ? L, is diluted with a saline solution, 0.9%, 100 ? […] The clotting time is measured in an automatic device (KC 10, Amelung, Germany). […]
Based on the estimated plasma concentrations of the active thrombin inhibitor (which assumes that thrombin time or ECT prolongation is caused by the aforementioned compound) in the rat, the area under the curve after oral and/or parenteral administration of the corresponding prodrug compound of formula I is calculated (AUCpd) using the trapezoidal rule and extrapolation of data to infinity.
The bioavailability of the active thrombin inhibitor after oral or parenteral administration of the prodrug is calculated as below: […]

Q: With `COc1cc(Cl)cc2c1[S+]([O-])CCC2(O)C(=O)N1CCC1C(=O)NCc1ccc(C(=N)N)cc1` (single isomer, unassigned) [Example 8, 6-Chloro-4-(R)-hydroxy-8-methoxy-1-(R or S)-oxo-thiochromane-4-yl-C(O)-Aze-PabxTFA] as the molecule, how does the IC50 [1] read?
A: Its IC50 is less than 50 nM.

Q: With `COc1cc(Cl)cc2c1S(=O)(=O)CC[C@]2(O)C(=O)N1CC[C@H]1C(=O)NCc1ccc(C(=N)N)cc1` [Example 1, (R)-6-Chloro-4-hydroxy-8-methoxy-1,1-dioxothiochromane-4-yl-C(O)-Aze-Pab] as the molecule, how does the IC50 [1] read?
A: The IC50 was less than 50 nM.

Q: For `N=C(N)c1ccc(CNC(=O)[C@@H]2CCN2C(=O)[C@@]2(O)CCS(=O)(=O)c3ccc(Cl)cc32)cc1` [Example 3, (R)-6-Chloro-4-hydroxy-1,1-dioxothiochromane-4-yl-C(O)-Aze-Pab], which IC50 [1] is on record?
A: The IC50 was less than 50 nM.

Q: Which “oral and/or parenteral bioavailability as the corresponding active inhibitor (free amidine)” value [2] does the source give for `COc1cc(Cl)cc2c1S(=O)(=O)CC[C@]2(O)C(=O)N1CC[C@H]1C(=O)NCc1ccc(C(N)=NOCc2ccccc2)cc1` [Example 4, (R)-6-Chloro-4-hydroxy-8-methoxy-1,1-dioxothiochromane-4-yl-C(O)-Aze-Pab(OBn)] here?
A: The value was “exhibit oral and/or parenteral bioavailability in the rat as the corresponding active inhibitor (free amidine)”.

Q: With `COc1cc(Cl)cc2c1S(=O)(=O)CC[C@]2(O)C(=O)N1CC[C@H]1C(=O)NCc1ccc(C(N)=NC(=O)OC2CCCC2)cc1` [Example 5, (R)-6-Chloro-4-hydroxy-8-methoxy-1,1-dioxothiochromane-4-yl-C(O)-Aze-Pab(C(O)-O-cyclopentyl)] as the molecule, how does the “oral and/or parenteral bioavailability as the corresponding active inhibitor (free amidine)” value [2] read?
A: The value was “exhibit oral and/or parenteral bioavailability in the rat as the corresponding active inhibitor (free amidine)”.

Q: Which “oral and/or parenteral bioavailability as the corresponding active inhibitor (free amidine)” value [3] does the source give for `CON=C(N)c1ccc(CNC(=O)[C@@H]2CCN2C(=O)[C@@]2(O)CCS(=O)(=O)c3c(Cl)cc(Cl)cc32)cc1` [Example 6, (R)-6,8-Dichloro-4-hydroxy-1,1-dioxothiochromane-4-yl-C(O)-Aze-Pab(OMe)] here?
A: The value was “exhibit oral and/or parenteral bioavailability in the rat as the corresponding active inhibitor (free amidine)”.

Q: And the “oral and/or parenteral bioavailability as the corresponding active inhibitor (free amidine)” value ([2]; Test G as printed)?
A: The value was “exhibit oral and/or parenteral bioavailability in the rat as the corresponding active inhibitor (free amidine)”.

Q: Which IC50 [1] does the source give for `N=C(N)c1ccc(CNC(=O)C2CCN2C(=O)C2(O)CCS(=O)(=O)c3c(OC(F)F)cc(Cl)cc32)cc1` (centres unmarked) [Example 7, 6-Chloro-8-difluoromethoxy-4-hydroxy-1,1-dioxothiochromane-4-yl-C(O)-Aze-Pab] here?
A: The IC50 was less than 50 nM.
